Where two headings read alike, the source gives them in different places.

The source of these data is patent US7465549B2 (UCB, S.A., priority 2002, dated 2008).

The target of test [1] is T1, levetiracetam binding site (LBS) (Rattus norvegicus, UniProt Q02563).
T1 construct: host or cells: crude rat brain membranes (Noyer et al. 1995; Gillard et al. 2003)
To be noted: cited from earlier work; for displacement of LEV binding: rat brain LBS.

In test [2] the test system is LBS in peripheral tissues. Particulars: heart, kidneys, spleen, pancreas, adrenals, lungs and liver; radiolabel studies; cited from earlier work.
The target in another test is T2, LBS (Rattus norvegicus, UniProt Q02563).
T2 construct: from tissue; host or cells: rat brain (crude membranes; 25 µm sections for autoradiography)
T2 sequence (Q02563 whole entry): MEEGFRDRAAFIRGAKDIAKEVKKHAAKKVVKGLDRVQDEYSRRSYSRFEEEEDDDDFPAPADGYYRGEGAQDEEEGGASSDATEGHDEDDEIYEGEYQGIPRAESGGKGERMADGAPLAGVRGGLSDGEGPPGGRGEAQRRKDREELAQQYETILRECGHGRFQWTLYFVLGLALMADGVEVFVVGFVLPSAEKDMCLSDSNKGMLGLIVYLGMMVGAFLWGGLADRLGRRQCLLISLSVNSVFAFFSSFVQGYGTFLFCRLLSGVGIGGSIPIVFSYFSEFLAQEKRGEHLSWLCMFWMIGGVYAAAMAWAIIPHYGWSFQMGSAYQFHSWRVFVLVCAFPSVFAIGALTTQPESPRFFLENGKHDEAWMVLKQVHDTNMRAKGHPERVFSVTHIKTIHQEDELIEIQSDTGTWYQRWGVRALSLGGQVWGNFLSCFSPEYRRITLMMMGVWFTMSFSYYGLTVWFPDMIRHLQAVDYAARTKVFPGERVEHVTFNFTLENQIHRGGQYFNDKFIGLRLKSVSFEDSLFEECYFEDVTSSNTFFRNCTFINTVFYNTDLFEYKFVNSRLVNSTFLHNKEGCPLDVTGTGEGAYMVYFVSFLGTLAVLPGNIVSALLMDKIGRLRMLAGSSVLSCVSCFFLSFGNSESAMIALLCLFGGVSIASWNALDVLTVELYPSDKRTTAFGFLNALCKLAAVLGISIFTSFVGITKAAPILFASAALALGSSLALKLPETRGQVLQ
As to the kind of experiment: autoradiography of [3H]ucb 30889 binding on rat brain sections. As to the method:
(§1) Binding experiments were conducted on crude rat brain membranes at 4° C. as described in Noyer et al. (Euro. J. Pharmacol. 286: 137-146 (1995)). Incubation time for equilibrium studies was 120 min. For kinetic and competition studies, [^3H]ucb 30889 (30 Ci/mmol) was used at a concentration of 1.3 nM in 0.5 ml of a Tris-HCl (pH 7.4) buffer containing 2 mM Mg^2+. Localization of the LBS in brain substructures was assessed by autoradiography on 25 μm thick slices incubated under similar conditions. Slides were then washed twice for 10 min at 4° C. in 50 mM Tris-HCl (pH 7.4) containing 0.5% BSA, dried and exposed for 3 weeks to [^3H]Hyperfilm at −20° C. Non-specific binding (NSB) was determined by the inclusion of 1 mM LEV during the incubation period.

The subject of test [3] is audiogenic-susceptible mouse. Particulars: cited from earlier work.
For the next test, the target named is T3, hSV2C (Homo sapiens, UniProt Q496J9).
T3 construct: expressed in transfected cells; host or cells: COS-7, transient
T3 sequence (Q496J9 1-727): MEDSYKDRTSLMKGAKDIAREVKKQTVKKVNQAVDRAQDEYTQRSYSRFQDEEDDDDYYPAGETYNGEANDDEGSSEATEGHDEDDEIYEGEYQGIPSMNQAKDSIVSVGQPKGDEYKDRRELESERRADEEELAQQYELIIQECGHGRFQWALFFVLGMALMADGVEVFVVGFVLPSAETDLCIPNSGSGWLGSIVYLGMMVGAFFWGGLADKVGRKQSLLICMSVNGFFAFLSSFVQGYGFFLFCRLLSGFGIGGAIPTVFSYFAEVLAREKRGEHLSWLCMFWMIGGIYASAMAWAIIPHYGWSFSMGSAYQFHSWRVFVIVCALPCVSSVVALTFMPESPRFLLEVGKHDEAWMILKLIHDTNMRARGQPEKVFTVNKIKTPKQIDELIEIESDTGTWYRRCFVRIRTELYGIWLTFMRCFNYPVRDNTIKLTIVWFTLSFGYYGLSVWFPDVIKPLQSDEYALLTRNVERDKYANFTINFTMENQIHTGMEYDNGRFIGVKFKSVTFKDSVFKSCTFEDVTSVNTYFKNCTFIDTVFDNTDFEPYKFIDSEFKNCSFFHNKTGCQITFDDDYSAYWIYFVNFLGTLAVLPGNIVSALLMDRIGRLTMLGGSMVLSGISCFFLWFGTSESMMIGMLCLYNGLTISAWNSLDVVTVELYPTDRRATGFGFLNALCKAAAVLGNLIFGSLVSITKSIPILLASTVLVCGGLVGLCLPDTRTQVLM
Briefly: [3H]ucb 30889 binding to hSV2C in transient COS-7 system.

In test [4] the target is T1, levetiracetam binding site (LBS). Briefly: [3H]ucb 30889 binding on crude rat brain membranes (kinetics, saturation, competition).
Another test has as its target T4, hSV2B (Homo sapiens, UniProt Q7L1I2).
T4 construct: expressed in transfected cells; host or cells: COS-7, transient
As to the kind of experiment: [3H]ucb 30889 binding to hSV2B in transient COS-7 system.

Another test deals with COS-7. Briefly: [3H]ucb 30889 binding in cell types. The procedure:
To identify and characterize the LBS in situ, [^3H]ucb 30889 was used to map the LBS within the brain and to study both its cellular and subcellular distribution. For rat brain autoradiography, 25 μm slices were incubated with 1.3 nM [^3H]ucb 30889 for 120 min at 4° C. in 50 mM Tris-HCl buffer (pH 7.4). Binding assays with rat brain membranes and various neuronal cell lines were performed under similar conditions. […] For photolabeling, membranes were incubated with 40 nM [^3H]ucb 30889 for 120 min at 4° C. in the same buffer, followed by irradiation with UV-light for 30 min (Fuks et al., Eur. J. Pharmacol. 478:11-19 (2003)).
In addition, a PC12 cell line subclone, PC12a, which is low in LBS, was used to establish a pool of PC 12 cells expressing hSV2A under stable antibiotic selection.

The target of a further test is T5, soluble SV2A (Rattus norvegicus, UniProt Q02563).
T5 construct: the soluble protein maintains its native structural conformation in n-dodecyl-β-D-maltoside; from tissue; host or cells: rat brain membranes, detergent supernatant (100,000 g)
T5 sequence (Q02563 whole entry): as the sequence (Q02563 whole entry) above
As to the kind of experiment: binding to soluble SV2A (n-dodecyl-β-D-maltoside solubilized rat brain membranes).

The test system of test [5] is LBS in peripheral tissues. Briefly: radioligand binding in peripheral tissues. More on the design: species or system rat. Particulars: 150 μg of protein/assay, 1.3 nM radioligand. The procedure:
as §1
The limit of detection under the experimental conditions (150 μg of protein/assay and 1.3 nM of radioligand) was a Bmax of 200 fmol/mg protein.

The target in the next test is T6, hSV2A (Homo sapiens, UniProt Q7L0J3).
T6 construct: expressed in transfected cells; host or cells: COS-7, transient, Lipofectamine 2000, pDEST 12.2 Gateway vector (CMV promoter)
T6 sequence (Q7L0J3 whole entry): as the sequence (Q02563 whole entry) above, with E53D, A62S, A71T, D144E, T154A, S440G, A482S, V572I, L634M counted along it
Briefly: [3H]ucb 30889 binding to hSV2A transiently expressed in COS-7 cells. Particulars: displacement of [3H]ucb 30889, COS-7 cells. In general terms: In a radioligand displacement assay an active substance lowers the binding of a labelled ligand.

T1 sequence (Q02563 whole entry): as the sequence (Q02563 whole entry) above
T4 sequence (Q7L1I2 whole entry): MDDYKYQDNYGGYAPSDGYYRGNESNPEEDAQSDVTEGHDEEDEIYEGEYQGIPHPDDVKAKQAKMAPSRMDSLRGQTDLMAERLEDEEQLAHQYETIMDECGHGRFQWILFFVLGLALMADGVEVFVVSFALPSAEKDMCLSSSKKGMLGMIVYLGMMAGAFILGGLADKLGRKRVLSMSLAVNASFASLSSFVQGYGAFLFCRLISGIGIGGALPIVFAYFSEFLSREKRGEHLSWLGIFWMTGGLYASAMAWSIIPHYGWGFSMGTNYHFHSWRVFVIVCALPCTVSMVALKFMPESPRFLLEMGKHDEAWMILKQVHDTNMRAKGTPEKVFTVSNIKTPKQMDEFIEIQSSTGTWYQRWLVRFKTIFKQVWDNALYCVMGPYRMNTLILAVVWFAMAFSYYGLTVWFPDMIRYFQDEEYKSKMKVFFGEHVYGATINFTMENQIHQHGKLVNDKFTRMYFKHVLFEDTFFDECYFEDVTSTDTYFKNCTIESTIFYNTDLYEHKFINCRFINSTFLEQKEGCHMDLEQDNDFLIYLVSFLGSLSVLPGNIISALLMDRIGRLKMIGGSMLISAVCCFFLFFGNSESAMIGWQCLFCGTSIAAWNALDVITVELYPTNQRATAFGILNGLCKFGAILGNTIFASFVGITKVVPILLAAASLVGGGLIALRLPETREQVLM
Experimental for soluble SV2A: The rat brain membranes were diluted in a solubilization buffer (Tris-HCl 20 mM pH 7.4, 0.25 M sucrose, protease inhibitors Complete Roche) containing n-dodecyl-β-D-maltoside 15 mM and incubated for two hours at 4° C. Subsequently, the solution was centrifuged at 4° C. for one hour at 100,000 g. […] The supernatants were incubated with [^3H]ucb 30889 as described.

Regarding `COc1ccc(C(=O)N2CCCC2=O)cc1` [aniracetam], in [1], the “displacement of LEV binding” value was “displaced LEV binding”.

Regarding `NC(=O)N1c2ccccc2C=Cc2ccccc21` [carbamazepine], the “displacement of LEV binding” value in [1] was “do not displace LEV binding”.

Consider `CCC1(C)CC(=O)NC1=O` (centres unmarked) [ethosuximide], for which the “displacement of LEV binding” value in test [1] is recorded as “competed with LEV”.

Take `NC(=O)OCC(COC(N)=O)c1ccccc1` [felbamate]: the “displacement of LEV binding” value in test [1] is on record as “do not displace LEV binding”.

As for `CC[C@@H](C(N)=O)N1CCCC1=O` [levetiracetam, (S)-α-ethyl-2-oxo-1-pyrrolidine acetamide], in test [1] (radioligand [3H]LEV), the “affinity for LBS” value is “only micromolar affinity”. For the same molecule, the “specific binding in peripheral tissues” value in test [2] was “no specific binding”. Moreover, the “inhibition of [3H]ucb 30889 binding in brain sections” value on LBS was “can be inhibited by levetiracetam at concentrations equivalent to those observed in in vitro binding”. Besides, in test [3], the suppression of seizures result is given as “unexpected potent ability of LEV to suppress seizures”.

Consider `O=C1NC(=O)C(c2ccccc2)(c2ccccc2)N1` [phenytoin], for which the “displacement of LEV binding” value in [1] was “do not displace LEV binding”.

For `Cc1ccsc1C(=CCCN1CCC[C@@H](C(=O)O)C1)c1sccc1C` [tiagabine], the “displacement of LEV binding” value in [1] is on record as “do not displace LEV binding”.

As for `CC[C@@H](C(N)=O)N1CC(c2cccc(N=[N+]=[N-])c2)CC1=O` (stereo partly drawn) [ucb 30889, (2S)-2-[4-(3-azidophenyl)-2-oxopyrrolidin-1-yl]butanamide], at hSV2C, the “binding to hSV2C” value is “no binding above background”. The same molecule had a Bmax in test [4] of 5054±704 fmol/mg protein. In addition, the “binding to hSV2B” value on hSV2B is “no binding above background”. Besides, in the test with COS-7, the “binding to untransfected COS-7 cell line” value is “no binding above background”. In addition, the “affinity for soluble SV2A compared with native membrane” value on soluble SV2A is “equivalent to that exhibited by ligands to the native membrane”. Moreover, the “specific binding in peripheral tissues” value in test [5] is “could not be detected”.

As to `CC[C@@H](C(N)=O)N1CCCC1=O` [ucb L060], at hSV2A, the “affinity to hSV2A compared with LEV” value is listed as “significantly less affinity”.

With `CCCC(CCC)C(=O)O` [valproate], the “displacement of LEV binding” value in test [1] is recorded as “do not displace LEV binding”.

In the case of `C=CC(N)CCC(=O)O` (centres unmarked) [vigabatrin], the “displacement of LEV binding” value in [1] is “do not displace LEV binding”.

In the case of `NS(=O)(=O)Cc1noc2ccccc12` [zonisamide], in test [1], the “displacement of LEV binding” value is “do not displace LEV binding”.
